Data reported in publication PMC9530166, “Allosteric regulation of glycogen breakdown by the second messenger cyclic di-GMP” (Nature Communications, 2022).
Entries after “also recorded” stand apart in the source; their conditions may differ.

Key:
His6-GlgXDETR(49-52) = assay: nanoDSF thermal shift assay, RETD49-52 swap mutant; assay type: binding, Streptomyces venezuelae; settings: His6-GlgXDETR(49-52) mutant
Procedure: Arginine and aspartic acid arranged in an RxxD motif are often found as c-di-GMP binding signatures in effector proteins[28],[34]. […] To determine if either of these motifs are involved in c-di-GMP binding, we swapped the arginine and aspartic acid residues in the two motifs and purified His6-GlgXDETR(49-52) and His6-GlgXDLVR(212-215).
For label-free thermal shift assay experiments, 10 μM purified protein in 25 mM Tris pH 8, 150 mM NaCl, 2.5% (v/v) glycerol, and 5 mM MgCl2 was incubated without or with (1 mM) of nonlabeled c-di-GMP or c-di-AMP, respectively, at rt for 10 min. Reactions were subsequently analyzed in a Tycho NT.6 (NanoTemper Technologies) device with a 30 K/min thermal ramp and the internal fluorescence at 330 and 350 nm was recorded. Data analysis and calculation of derivatives was done using the internal evaluation features of the Tycho instrument.
217 Supplementary Fig. 5: NanoDSF assays with mutagenized His6-GlgX variants. (a) Swap of the
219 This was confirmed by DRaCALA, right. For DRaCALA assays, 15 µg of purified E. coli His6-GlgX
220 or His6-Vnz25270, respectively, were mixed with 0.5 µl of [32P]-c-di-GMP (Hartmann Analytic
221 GmbH, Braunschweig) in binding buffer (25 mM Tris pH 8.0, 150 mM NaCl, 2.5% (v/v) glycerol
222 and 5 mM MgCl2). […]
223 air dried for 10 min and analyzed by phosphorimaging. […]

His6-GlgXDETR49-52 = assay: BCA reducing-end enzyme assay, GlgXDETR49-52; assay type: biochemical, Streptomyces venezuelae; settings: 50 µM c-di-GMP, 0.05% glycogen from rabbit, 1 µM enzyme
Procedure: Fig. 2 c-di-GMP stimulates glycogen breakdown activity of GlgX in vitro. a Bicinchoninic acid (BCA) in vitro enzyme assay. The purple copper bicinchoninate complex indicating GlgX-mediated generation of reducing ends in glycogen was quantified by photometric measurements at 562 nm. A562 values were converted into reducing ends [µM glucose equivalents] based on D-glucose as a standard. Reactions contained 0.05% (w/v) glycogen from rabbit, 1 µM GlgX and increasing concentrations of c-di-GMP (0–100 µM). Source data are provided as a Source data file. b BCA assay containing 0.05% of either glycogen from rabbit, pullulan, amylopectin from maize or amylose from potato as substrates. Where appropriate, 1 µM GlgX or 50 µM c-di-GMP were added to the reaction samples. Source data are provided as a Source data file. c BCA assay as in a with or without c-di-GMP (50 µM), 0.05% glycogen from rabbit (S) and 1 µM Vnz25270, GlgX, the active site mutants GlgXD342A, GlgXE378A, GlgXD342A+E378A, or the c-di-GMP-binding mutant variant GlgXDETR49-52 as indicated. […]
Hydrolysis of carbohydrates was assessed in vitro by measuring the accumulation of reducing sugar ends using the BCA assay[42] and D-glucose as a standard for calibration (Supplementary Fig. 11). […] 125 μl sample aliquots were transferred in duplicates to a 96 well plate and the absorbance at 562 nm was measured using a plate reader.

SMILES: Nc1nc2c(ncn2[C@@H]2O[C@@H]3CO[P@](=O)(O)O[C@H]4[C@@H](O)[C@H](n5cnc6c(=O)[nH]c(N)nc65)O[C@@H]4CO[P@](=O)(O)O[C@H]3[C@H]2O)c(=O)[nH]1 [c-di-GMP, bis-(3′−5′)-cyclic diguanosine monophosphate]
- effect of c-di-GMP in nanoDSF (His6-GlgXDETR(49-52)): abolishes c-di-GMP binding; also recorded: no effect
- effect of c-di-GMP on hydrolytic activity (His6-GlgXDETR49-52): remained at basal levels
